# Assay results taken from patent US7662767B2, “Polynucleotide intercalator interceptors and inhibitors” (Materials Evolution and Development USA, Inc., priority 2000, dated 2010).
# Values joined by “and” are separate entries in the source; they are usually repeats but may differ in a detail not shown here. Equal values may be shown once.
# What was measured:
# [1] = Optical titration (absorbance) of acridine orange with xanthines/purines, Kassoc from delta absorbance; format: binding; details: for Kassoc ± S.E.: binding affinity between acridine orange (10 μM) and compound, 5 mM HEPES pH 7.0, 25±1° C., 0 = no measurable association detected; for complex formation / binding affinity with AO: optical titration
# Description: A red spectral shift in the optical adsorption maximum of AO upon the addition of a particular xanthine, indicates the possibility of a complex being formed between the two compounds. Spectral shifts can be measured by optical titrations.
# Optical titrations (serial additions of various xanthines to a solution of AO) were performed on a Beckman DU-600 Scanning Spectrophotometer (Beckman Instrument Co., New York, N.Y.) using a 3 mL (1-cm light path) quartz cuvette containing 2.0 mL of a […]. The DU600 Spectrophotometer was blanked with 2 mL of a pH 7.0 buffered 5 mM HEPES solution over the full range of wavelengths to be scanned prior to sample analysis. This reduced the need to subtract the background absorbance from the HEPES buffer. Optical absorbance scans were performed over a wavelength range preferably from 400 nm to 550 nm. […] The 10 μM AO solution was scanned before the start of each titration series to quantitatively monitor any changes in the absorbance spectrum. Optical absorbance experiments were performed using aliquots varying in volume from 1:L to 20:L taken from prepared xanthine stock solutions (5 mM to 50 mM) and titrated into the cuvette containing 2.0 mL of the 10 μM AO solution. The solution in the cuvette was then thoroughly mixed by 10 seconds of shaking before scanning. All titrations were performed at room temperature (25±1° C.). The absorbance spectra were measured in 1 nm intervals and stored in digital form. Digitized scan data was converted to a Lotus Spreadsheet file (*.wk1) using a conversion program supplied by the manufacturer (Beckman Instruments Inc.) then imported into a Microsoft Excel 97™ Workbook file (*.xls) and saved in this format for further analysis. Spectral data for each titration was combined and expressed in graphic form (Excel™) (X-axis=wavelength in nm; Y-axis=optical absorbance) for each xanthine titrated with AO. […] Adjusted absorption values were plotted and compared to spectra from non-complexed AO. This allowed for the visualization of an expected spectral shift that occurs when AO forms a complex with a xanthine.
# The association constant, Kassoc, may be used to analyze the binding ability of modified xanthines to DNA intercalators. The association constant may be calculated based upon a differential shift in the absorbance spectrum. When the presence of the xanthine caused a spectral shift, a difference absorbance plot or delta plot was obtained. Delta plots were constructed by subtracting the adjusted absorption spectrum of AO in the presence of the xanthine from the initial spectrum of AO alone at each wavelength and for each aliquot of the titration. This procedure allowed for the creation of difference absorption values or delta absorption values. Delta absorption values obtained in this manner (Y-axis=delta absorption) were plotted against wavelength in nm (X-axis). The appearance of a single isobestic point was indicative of only two species present in solution, AO, and an AO complex. Graphic representation allowed for the selection of a wavelength with the maximum sensitivity for determining the association constant. This wavelength was characterized by the greatest positive response in delta absorbance values observed upon addition of each aliquot of xanthine to the AO solution. The AO-xanthine association or binding constant was determined by the following equilibrium expression: I+X≡IX EQUATION 1: […]
# Where I represents the intercalator (AO), X represents the interceptor molecule (xanthine), and IX represents the AO-xanthine complex, respectively.
# [2] = test system: chicken erythrocyte nuclear chromatin; assay: Blocking of acridine orange intercalation into chicken erythrocyte nuclear chromatin, fluorescence microscopy; parameters: key: 0: no blocking effect; 1: slight blocking; 2: moderate blocking; 3: almost total blocking (very slight green fluorescence detectable); 4: complete blockage (no green fluorescence detectable); details: 10 μM AO
# Description: Microscope slides coated with chicken erythrocyte were stained with 10 μM AO at three separate areas on the microscope slide as described above. Slides were exposed to […] different xanthies at four different molar ratios for three different periods of time. The xanthines, theophylline, caffeine, 1,3,7,9-tetramethyl uric acid, and aminophylline, were prepared with 10 μM AO at molar ratios of 50:1, 500:1, 2500:1, 5000:1 xanthine to AO in distilled water. Microscope slides coated with chicken erythrocytes were exposed to a mixture of xanthine/AO at each molar ratio for periods of 10 min, 1 min, and 10 seconds under static (non-agitated) conditions. […] Following exposure to the xanthine/AO or to the DNA/AO solutions, the slides were rinsed in distilled water, allowed to dry at room temperature, examined by fluorescence microscopy, and the color of the nuclei recorded. Results were recorded as follows: 0=no blocking effect; 1=slight blocking; 2=moderate blocking; 3=almost total blocking (very slight green fluorescence detectable); 4=complete blockage (no green fluorescence detectable).
# In the implementation shown in Table 4-2, the relative intensity of the green fluorescent color ([…]) utilizing a red blocking filter (≧600 nm) was used as the indicator of the intensity of staining. The molar ratio is expressed as the ratio of xanthine concentration to 10 μM AO. Results were recorded as follows: 0=no blocking effect; 1=slight blocking; 2=moderate blocking; 3=almost total blocking (very slight green fluorescence detectable); 4=complete blockage (no green fluorescence detectable). *Kassoc values for the xanthines are taken from Table 2-1 and the Kassoc values for DNA were taken from Table 3-2.
# [3] = test system: chicken erythrocyte nuclear chromatin; assay: Removal of acridine orange from stained chicken erythrocyte nuclear chromatin by xanthine rinse, fluorescence microscopy; details: for Nuclear color, Stain: before xanthine rinse; for Nuclear color, Re-stain: re-stained after xanthine rinse; for Nuclear color, After Rinse: xanthine rinse 50 mM, 1 hour, static
# Description: Experiments were conducted to determine whether xanthines with known binding affinities to AO could compete with nuclear DNA for binding to AO and, therefore, be able to remove AO from its intercalation position within nuclear chromatin. Fluorescence microscopy was used to observe the fluorescent color produced by the AO-DNA complex following the staining of chicken erythrocyte nuclear chromatin with AO at both 5 μM and 5 mM.
# Microscope slides smeared with chicken erythrocytes were stained with either 5 μM or 5 mM AO for a period of 30 minutes followed by three 10 second rinses in distilled water before drying at room temperature. Slides were then examined by fluorescence microscopy using a, Zeiss Model 63 Microscope with a xenon source fluorescent emitter. In some instances, a blocking filter was used to filter out fluorescence emission in the red and higher wavelengths. Photomicrographs were taken with Kodak Gold 35 mm ASA 1600 speed film, developed and color prints made. Comparative photomicrographs were taken at the same magnification and at the same exposure time. Selected photomicrographs were digitally scanned (Hewitt-Packard, Model 4L Scanner, Palo Alto, Calif.) and stored on 100 MB ZIP cartridges.
# Slides were again examined by fluorescence microscopy and fluorescence color of the nuclei recorded. Slides were again stained with 5 mM AO then re-examined by fluorescence microscopy and fluorescence color of the nuclei recorded.
# In the example shown in Table 4-3, the chicken erythrocytes were smeared and dried on a microscope slide prior to exposure to the AO solution for 30 minutes followed by water rinses to remove excess AO. Following drying, each slide was observed under fluorescence microscopy then placed in one of the xanthine solutions (50 ml volume) for 1 hour under static conditions, rinsed with water, then dried prior to being observed by fluorescence microscopy without a red blocking filter. Finally, each slide was restained following the initial staining procedures and again observed by fluorescence microscopy. Kassoc values are taken from Table 2-1 and are expressed in M^−1.
# [4] = Xanthine/AO molar ratio 5000:1, exposure 10 min
# [5] = molar ratio 50:1, exposure 10 sec
# [6] = molar ratio 50:1, exposure 1 min
# [7] = molar ratio 50:1, exposure 10 min
# [8] = molar ratio 500:1, exposure 10 sec
# [9] = molar ratio 500:1, exposure 1 min
# [10] = molar ratio 500:1, exposure 10 min
# [11] = molar ratio 2500:1, exposure 10 sec
# [12] = molar ratio 2500:1, exposure 1 min
# [13] = molar ratio 2500:1, exposure 10 min
# [14] = molar ratio 5000:1, exposure 10 sec
# [15] = molar ratio 5000:1, exposure 1 min
# [16] = Table 2-2, Kassoc value with acridine orange (this report)
# [17] = Table 4-2, in parentheses under compound, taken from Table 2-1
# [18] = Table 4-3, taken from Table 2-1
smiles,measurement,setting,value
COc1nc(N)nc2nc[nH]c12 [2-amino-6-methoxy purine],Kassoc ± S.E.,[1],~2 M⁻¹
Cn1c(=O)[nH]c(=O)c2[nH]cnc21 [3-methyl xanthine],complex formation / binding affinity with AO,[1],little or no affinity to complex with AO
Cn1cnc2[nH]c(=O)[nH]c(=O)c21 [7-methyl xanthine],Kassoc ± S.E.,[1],0 M⁻¹
same,complex formation / binding affinity with AO,[1],little or no affinity to complex with AO
Clc1ncnc2nc[nH]c12 [6-chloro purine],Kassoc ± S.E.,[1],0 M⁻¹
Cn1c(=O)[nH]c2[nH]c(=O)[nH]c2c1=O [1-methyl-8-oxy xanthine],Kassoc ± S.E.,[1],0 M⁻¹
same,complex formation / binding affinity with AO,[1],failed to exhibit any significant binding affinity for AO
"Cn1c(=O)c2[nH]c(=O)[nH]c2n(C)c1=O [1,3-dimethyl-8-oxy xanthine]",Kassoc ± S.E.,[1],38.5 M⁻¹ and 38.5 ± 2.2 M⁻¹
same,complex formation / binding affinity with AO,[1],failed to exhibit any significant binding affinity for AO
"Cn1c(=O)c2c(n(C)c1=O)n(C)c(=O)n2C [1,3,7,9-tetramethyl-8-oxy xanthine]",blocking of AO intercalation,[2]; [4],2
same,blocking of AO intercalation,[2]; [5],0
same,blocking of AO intercalation,[2]; [6],0
same,blocking of AO intercalation,[2]; [7],0
same,blocking of AO intercalation,[2]; [8],0
same,blocking of AO intercalation,[2]; [9],0
same,blocking of AO intercalation,[2]; [10],0
same,blocking of AO intercalation,[2]; [11],0
same,blocking of AO intercalation,[2]; [12],1
same,blocking of AO intercalation,[2]; [13],1
same,blocking of AO intercalation,[2]; [14],2
same,blocking of AO intercalation,[2]; [15],2
same,effect of xanthine rinse on fluorescence of AO stained nuclear chromatin,[3]; 50 mM xanthine rinse,"removal of most, if not all, green and red color"
same,"Nuclear color, Stain",[3]; AO [5 μM] 30 minutes,Green
same,"Nuclear color, Re-stain",[3]; AO [5 μM],Green
same,"Nuclear color, After Rinse",[3]; AO [5 μM],None
same,"Nuclear color, Stain",[3]; AO [5 mM] 30 minutes,Red
same,"Nuclear color, Re-stain",[3]; AO [5 mM],Red
same,"Nuclear color, After Rinse",[3]; AO [5 mM],None
same,Kassoc,[1]; [16],552 M⁻¹
same,Kassoc,[1]; [17],(552) M^−1
same,Kassoc,[1]; [18],552 M⁻¹
same,Kassoc ± S.E.,[1],551.5 ± 9.0 M⁻¹
same,Kassoc ± S.E.,"[1]; listed as 1,3,7,9-tetramethyl uric acid",552 M⁻¹
"Cn1c(=O)c2[nH]c(Cl)nc2n(C)c1=O [1,3-dimethyl-8-chloro xanthine]",Kassoc ± S.E.,[1],412.5 ± 11.7 M⁻¹
same,complex formation / binding affinity with AO,[1],failed to exhibit any significant binding affinity for AO
Cn1c(=O)[nH]c2nc[nH]c2c1=O [1-methyl xanthine],Kassoc,[1]; [16],79^a M^−1
same,Kassoc ± S.E.,[1],79.2 ± 2.0 M⁻¹
same,complex formation / binding affinity with AO,[1],failed to exhibit any significant binding affinity for AO
"O=c1[nH]c(=O)c2[nH]c(=O)[nH]c2[nH]1 [uric acid (8-oxy xanthine), 8-oxy xanthine]",Kassoc ± S.E.,[1],0 M⁻¹
same,complex formation / binding affinity with AO,[1],did not complex with AO
"Cn1c(=O)[nH]c2ncn(C)c2c1=O [1,7-dimethyl xanthine]",Kassoc,[1]; [16],155 M⁻¹
same,Kassoc ± S.E.,[1],155.3 ± 3.1 M⁻¹
Cc1ncnc2nc[nH]c12 [6-methyl purine],Kassoc ± S.E.,[1],0 M⁻¹
Cn1cnc2ncnc-2c1N [1-methyl-6-amino purine],Kassoc ± S.E.,[1],~14 M⁻¹
Cn1c(=O)[nH]c2[nH]c(=O)[nH]c(=O)c21 [7-methyl-8-oxy xanthine],Kassoc ± S.E.,[1],0 M⁻¹
same,complex formation / binding affinity with AO,[1],little or no affinity to complex with AO
"Cn1c(=O)c2[nH]cnc2n(C)c1=O [1,3-dimethyl xanthine (theophylline), 1,3-dimethyl xanthine]",blocking of AO intercalation,[2]; [4],0
same,blocking of AO intercalation,[2]; [5],0
same,blocking of AO intercalation,[2]; [6],0
same,blocking of AO intercalation,[2]; [7],0
same,blocking of AO intercalation,[2]; [8],0
same,blocking of AO intercalation,[2]; [9],0
same,blocking of AO intercalation,[2]; [10],0
same,blocking of AO intercalation,[2]; [11],0
same,blocking of AO intercalation,[2]; [12],0
same,blocking of AO intercalation,[2]; [13],0
same,blocking of AO intercalation,[2]; [14],0
same,blocking of AO intercalation,[2]; [15],0
same,"Nuclear color, Stain",[3]; AO [5 μM] 30 minutes,Green
same,"Nuclear color, Re-stain",[3]; AO [5 μM],Green
same,"Nuclear color, After Rinse",[3]; AO [5 μM],Green
same,"Nuclear color, Stain",[3]; AO [5 mM] 30 minutes,Red
same,"Nuclear color, Re-stain",[3]; AO [5 mM],Red
same,"Nuclear color, After Rinse",[3]; AO [5 mM],Red
same,Kassoc,[1]; [16],157 M⁻¹
same,Kassoc,[1]; [17],(157) M^−1
same,Kassoc,[1]; [18],161 M⁻¹
same,Kassoc ± S.E.,[1],160.8 M⁻¹
c1ncc2[nH]cnc2n1 [Purine],Kassoc ± S.E.,[1],~2 M⁻¹
